Measured values taken from the supplement of paper PMC10307832.

Legend:
Assay in all cases: relative viability (nuclei count vs DMSO), 5 days (fraction); higher = more cells survive
[1] = compound: O=S(=O)(c1ccccc1)N(CC(F)(F)F)c1ccc(C(O)(C(F)(F)F)C(F)(F)F)cc1 + Nc1nc2[nH]cc(CCc3ccc(C(=O)N[C@@H](CCC(=O)O)C(=O)O)cc3)c2c(=O)[nH]1 [Pemetrexed] (partner 0.2 µM)
In short: (§1)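 Medians of duplicate plates are given as relative viability. That measure is the nuclei count in treated wells divided by the count in vehicle wells. Counts were taken on 4× images of lung cancer cell lines in 1536-well plates, 5 days after pin-tool dosing the day after seeding with one drug alone or a fixed anchor-drug dose plus five library-drug doses (not always all listed) in √10 steps.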

[2] = compound: O=S(=O)(c1ccccc1)N(CC(F)(F)F)c1ccc(C(O)(C(F)(F)F)C(F)(F)F)cc1 + C[C@]1(O)C[C@@H](c2nc(-c3ccc4ccc(-c5ccccc5)nc4c3)c3c(N)nccn32)C1 [Linsitinib] (partner 1 µM)
In short: as §1

RO-3306 + Tozasertib = compound: C1=CC2=C(C=CC(=C2)C=C3C(=O)NC(=NCC4=CC=CS4)S3)N=C1 [RO-3306] + Cc1cc(Nc2cc(N3CCN(C)CC3)nc(Sc3ccc(NC(=O)C4CC4)cc3)n2)n[nH]1 [Tozasertib] (partner 0.1 µM)
In short: as §1

[3] = compound: O=S(=O)(c1ccccc1)N(CC(F)(F)F)c1ccc(C(O)(C(F)(F)F)C(F)(F)F)cc1 + CCNC(=O)c1noc(-c2cc(C(C)C)c(O)cc2O)c1-c1ccc(CN2CCOCC2)cc1 [Luminespib] (partner 0.01 µM)
In short: as §1

[4] = compound: O=S(=O)(c1ccccc1)N(CC(F)(F)F)c1ccc(C(O)(C(F)(F)F)C(F)(F)F)cc1 + O=C(c1cc(Cc2n[nH]c(=O)c3ccccc23)ccc1F)N1CCN(C(=O)C2CC2)CC1 [Olaparib] (partner 8 µM)
In short: as §1

Cell Line | relative viability ([1]; first compound 0.8 µM) | relative viability ([1]; first compound 2.53 µM) | relative viability ([1]; first compound 8 µM) | relative viability ([2]; first compound 0.8 µM) | relative viability ([2]; first compound 2.53 µM) | relative viability ([2]; first compound 8 µM) | relative viability (RO-3306 + Tozasertib; first compound 0.01 µM) | relative viability (RO-3306 + Tozasertib; first compound 0.03162 µM) | relative viability (RO-3306 + Tozasertib; first compound 0.1 µM) | relative viability (RO-3306 + Tozasertib; first compound 0.3162 µM) | relative viability (RO-3306 + Tozasertib; first compound 1 µM) | relative viability ([3]; first compound 0.8 µM) | relative viability ([3]; first compound 2.53 µM) | relative viability ([3]; first compound 8 µM) | relative viability ([4]; first compound 0.8 µM) | relative viability ([4]; first compound 2.53 µM) | relative viability ([4]; first compound 8 µM)
SK-MES-1 | 1.12 | 1 | 0.824 | 1.15 | 1.17 | 0.972 | 1.02 | 1 | 1.01 | 0.807 | 0.585 | 0.677 | 0.744 | 0.533 | 0.743 | 0.728 | 0.579
H3255 | 0.602 | 0.526 | 0.502 | 0.962 | 0.867 | 0.832 | 0.621 | 0.372 | 0.611 | 0.692 | 0.466 | 0.734 | 0.753 | 0.767 | 0.533 | 0.488 | 0.439
NCI-H2087 | 0.459 | 0.593 | 0.633 | 0.921 | 0.95 | 0.961 | 0.254 | 0.19 | 0.214 | 0.228 | 0.217 | 0.17 | 0.146 | 0.205 | 0.643 | 0.609 | 0.637
NCI-H1666 | 0.768 | 0.818 | 0.832 | 0.788 | 0.703 | 0.78 | 0.64 | 0.588 | 0.59 | 0.631 | 0.59 | 0.831 | 0.84 | 0.889 | 0.757 | 0.683 | 0.679
SK-LU-1 | 1.05 | 0.976 | 1.01 | 1.09 | 0.97 | 0.881 | 0.266 | 0.312 | 0.313 | 0.321 | 0.282 | 0.169 | 0.165 | 0.196 | 0.446 | 0.472 | 0.433
NCI-H727 | – | – | – | 0.279 | 0.376 | 0.212 | 0.706 | 0.644 | 0.498 | 0.613 | 0.573 | 0.389 | 0.292 | 0.358 | 0.657 | 0.706 | 0.704
NCI-H1755 | 0.417 | 0.422 | 0.436 | 1.01 | 0.98 | 0.995 | 0.577 | 0.688 | 0.514 | 0.547 | 0.554 | 0.505 | 0.418 | 0.458 | 0.918 | 0.865 | 0.849
NCI-H1650 | 0.332 | 0.355 | 0.397 | – | – | – | 0.398 | 0.366 | 0.345 | 0.309 | 0.316 | 0.184 | 0.2 | 0.231 | 0.792 | 0.678 | 0.743
HARA | 0.254 | – | 0.269 | 0.901 | 0.847 | 0.776 | 0.146 | 0.11 | 0.453 | 0.0948 | 0.101 | 0.652 | 0.263 | 0.414 | 0.995 | – | 0.678
NCI-H1944 | 0.634 | 0.589 | 0.576 | 1.25 | 1.08 | 1.13 | 0.235 | 0.25 | 0.234 | 0.259 | 0.242 | 0.946 | 0.786 | 0.68 | 0.407 | 0.39 | 0.396
RERF-LC-KJ | 0.477 | 0.453 | 0.461 | 0.901 | 0.779 | 0.801 | 0.634 | 0.434 | 0.546 | 0.521 | 0.463 | 1.29 | 1.17 | 1.17 | 0.853 | 0.893 | 0.88
NCI-H647 | 0.0949 | 0.156 | 0.164 | 1.31 | 1.07 | 1.16 | 0.333 | 0.0513 | 0.304 | 0.269 | 0.158 | 0.275 | 0.19 | 0.233 | 0.667 | 0.418 | 0.6
NCI-H838 | 0.236 | 0.242 | 0.259 | 1.13 | 1.04 | 0.97 | 0.308 | 0.283 | 0.255 | 0.258 | 0.264 | 0.24 | 0.257 | 0.299 | 0.937 | 0.736 | 0.86
NCI-H2170 | 0.256 | 0.274 | 0.28 | – | – | – | 0.689 | 0.933 | 0.663 | 0.804 | 0.679 | 0.855 | 0.474 | 0.489 | 0.666 | 0.563 | 0.609
COR-L 105 | 1.34 | 1.06 | 0.988 | 0.896 | 0.758 | 0.96 | 0.361 | 0.337 | 0.329 | 0.379 | 0.32 | 0.784 | 0.665 | 0.659 | 0.69 | 0.602 | 0.546
HOP-62 | 0.238 | 0.271 | 0.243 | 1.14 | 0.607 | 0.836 | 0.346 | 0.304 | 0.353 | 0.39 | 0.377 | 0.903 | 0.907 | 0.862 | 0.226 | 0.49 | 0.392
A-427 | 0.939 | 0.937 | 1.05 | 1.04 | 1.03 | 1.12 | 0.173 | 0.181 | 0.166 | 0.173 | 0.235 | 0.919 | 0.774 | 1.05 | 0.807 | 0.673 | 0.778
PC-14 | 0.135 | 0.116 | 0.148 | 1.23 | 1.07 | 0.888 | 0.78 | 0.572 | 0.527 | 0.562 | 0.488 | 0.153 | 0.132 | 0.19 | 0.201 | 0.198 | 0.204
NCI-H1648 | 0.718 | 0.574 | 0.535 | – | – | – | 0.406 | – | 0.558 | 0.362 | 0.478 | – | – | – | 0.835 | 0.542 | 0.602
